Patent publication US9707272B2, “Method for the treatment of acne by administering IL-1β antibody” (UNIVERSITAT ZURICH, priority 2011, dated 2017)

B1: Canakinumab (antibody, V domains shown)
VH: QVQLVESGGGVVQPGRSLRLSCAASGFTFSVYGMNWVRQAPGKGLEWVAIIWYDGDNQYYADSVKGRFTISRDNSKNTLYLQMNGLRAEDTAVYYCARDLRTGPFDYWGQGTLVTVSS
VL: EIVLTQSPDFQSVTPKEKVTITCRASQSIGSSLHWYQQKPDQSPKLLIKYASQSFSGVPSRFSGSGSGTDFTLTINSLEAEDAAAYYCHQSSSLPFTFGPGTKVDIK
modifications: antibody fragment
notes: Id; No. 1 and 2

Assays:
TLR2−/− mice = assay: Intradermal P. acnes ear inflammation model in TLR2-deficient mice; assay type: in vivo, mouse; conditions: treatment with IL-1Ra or anti-IL-1β antibody; for development of cutaneous inflammation: histology, FIG. 4i; for development of ear swelling: FIG. 4g
Method: (§1) C57BL/6 mice received three intraperitoneal (i.p.) injections of IL-1 receptor antagonist (IL-1Ra, Anakinra, 150 mg/kg) or PBS at 8 h intervals. One hour after first i.p. injection of IL-1Ra mice received intradermal injections of P. acnes or PBS. TNFα inhibitor (Etanercept) and anti-IL-1β antibody treated mice (Canakinumab, […]) C57BL/6 mice received i.p. injection 24 h before an intradermal injection of P. acnes or PBS. To make bone marrow chimeras indicated mice were lethally irradiated (10 Gy) and subsequently transplanted with indicated bone marrow. After bone marrow reconstitution (8 weeks later) mice were interdermally injected with P. acnes or PBS.
(§2) The ear thickness was measured using a micro caliper before and 24 h after bacterial injection. The percentage of ear thickness was calculated by comparing the ear thickness before and 24 hours after injection.
(§3) WT mice were injected intradermally with P. acnes (20×10^6 CFU/[…] in PBS, left ear) or with an equal amount of PBS (right ear) (FIG. 4a). Mice were treated with vehicle (n=11) or three intraperitoneal injections of IL-1Ra (Anakinra, 150 mg/kg, n=13) at the 8 h intervals or a single i.p. injection of anti-IL1β antibody ([…]) one hour prior to P. acnes or PBS challenge. The ear swelling as measured 24 hrs later is presented. ASC^−/− mice were challenged the same way with P. acnes. The resulting ear swelling (FIG. 4b) and pro- and mature-IL1β in ear extracts (FIG. 4c) are presented. […] WT mice reconstituted with WT (n=8-10), ASC^−/− (n=12) or NLRP3^−/− (n=8) bone marrow were challenged with P. acnes or PBS as described above. The resulting swelling (FIG. 4e) and histology of the infected ear (FIG. 4f) are presented. TLR2^−/− (n=10) were intradermally injected with P. acnes or PBS one hour after treatment with IL-1Ra (n=10) or anti-IL-1β antibody (n=9) as described above. The resulting ear swelling (FIG. 4g) and histology (FIG. 4i) are presented.

C57BL/6 WT mice = assay: Intradermal P. acnes ear inflammation model in WT mice; assay type: in vivo, mouse; conditions: for ear swelling: intradermal P. acnes 20×10^6 CFU, 24 h, i.p. IL-1Ra 150 mg/kg three times at 8 h intervals or single i.p. anti-IL1β antibody, FIG. 4a; for subcutaneous neutrophil infiltration: intradermal P. acnes, histology (HE), i.p. IL-1Ra or anti-IL1β antibody, FIG. 4d
Method: as §1, §2, §3

[1] = tested on: IL-1β secretion from human monocytes; assay: IL-1β secretion (ELISA) and maturation (western blot) from human monocytes exposed to P. acnes or inflammasome activators; assay type: cell-based; conditions: upLPS-primed human monocytes, P. acnes MOI=100, 6 h; Glibenclamide or KCl 65 mM added one hour prior, FIG. 3f
Method: For Western blotting cell culture supernatants were precipitated by addition of 0.25 volumes of trichloroacetic acid (100% w/v), 10 min incubation on ice and centrifugation for 5 min at 14,000 g. Protein pellet was washed twice with ice-cold acetone, centrifuged as described above and dried at 70° C. Cells were lysed with buffer (10 mM Tris pH 7.5, 1% NP-40, 150 mM NaCl, 5 mM EDTA,) containing a protease inhibitor cocktail. Proteins were separated on a NuPAGE gel in accordance with the manufacturer's protocol and transferred to a Hybond-C-Extra membrane by electroblotting. […] Appropriate HRP-conjugated secondary antibodies were used and proteins were detected using ECL reagent. […]
Human monocytes were primed with upLPS and infected with P. acnes (MOI=100) or stimulated with MSU crystals ([…]) in the presence of vehicle (DMSO) or pan-caspase inhibitor (Z-VAD-fmk, […]) for 24 h (FIG. 2a). IL-1β secretion was determined by ELISA and mature IL-1β release (IL-1β p17) by western blot. […]
THP1 cells were treated with vehicle (DMSO) or cytochalasin D (Cyt. D, […]) for one hour and then incubated with CFSE-labeled P. acnes (MOI=100) for 4 h or left untreated (FIG. 3a). Bacteria uptake was analyzed by FACS. […] IL-1β (FIG. 3f) and TNFα (FIG. 3g) release were determined after 6 h by ELISA. […]

Molecule	development of cutaneous inflammation (TLR2−/− mice)	development of ear swelling (TLR2−/− mice)	ear swelling (C57BL/6 WT mice)	subcutaneous neutrophil infiltration (C57BL/6 WT mice)	subcutaneous neutrophil infiltration (C57BL/6 WT mice; listed as IL-1 receptor antagonist)	IL-1β release [1]	subcutaneous neutrophil infiltration (C57BL/6 WT mice; listed as monoclonal anti-IL1β antibody)
Anakinra [IL-1Ra]	blocked	blocked	significant reduction	significant reduction	selective blockade		
[Cl-].[K+] [KCl]						significant reduction	
COc1ccc(Cl)cc1C(=O)NCCc1ccc(S(=O)(=O)NC(=O)NC2CCCCC2)cc1 [glibenclamide, 5-Chloro-N-[2-[4-(cyclohexylcarbamoylsulfamoyl)phenyl]ethyl]-2-methoxy-benzamide]						significant reduction	
B1	blocked	blocked	significant reduction	significant reduction			selective blockade
